# Test results from US20240317727A1 (Duke University, priority 2018, published 2024).
# Assays:
# HOP-62 = experiment: NCI60 cell growth and viability: HOP-62; type: cell-based; conditions: HOP-62, Non-Small Cell Lung Cancer, two days
# BT-549 = experiment: NCI60 cell growth and viability: BT-549; type: cell-based; conditions: BT-549, Breast Cancer, two days
# MDA-MB-435 = experiment: NCI60 cell growth and viability: MDA-MB-435; type: cell-based; conditions: MDA-MB-435, Melanoma, two days
# A498 = experiment: NCI60 cell growth and viability: A498; type: cell-based; conditions: A498, Renal Cancer, two days
# NCI-H23 = type: cell-based; conditions: NCI-H23, Non-Small Cell Lung Cancer, two days
# [1] = system: Hsp27, Hsp70, Hsp90 and p23; experiment: Chaperone protein levels in C4-2 cells, immunoblot; type: cell-based, human; conditions: FIG. 4A/4B
# T-47D = experiment: NCI60 cell growth and viability: T-47D; type: cell-based; conditions: Breast Cancer, two days
# HSF1 target gene, Hsp70 = experiment: Hsp70 transcript in mouse liver and heart tissue, qRT-PCR; type: in vivo; conditions: mice, 25 mpk three times per week i.p., vs vehicle, relative to GAPDH, FIG. 6B
# Procedure: The cells were treated for 96 hours with the indicated concentrations of the compounds of the disclosure and cell viability was measured with the AlamarBlue assay. […]. […] After sacrificing the mice on the last day of the administration, mouse liver and heart tissue was isolated, messenger RNA extracted and the transcript abundance of the HSF1 target gene, Hsp70, was evaluated by qRT-PCR relative to the internal RNA control, GAPDH. The results of the vehicle-treated versus Compound 0017-treated experiments were compared. […]; **=P<0.01 in accordance with one embodiment of the present disclosure.
# SNB-75 = experiment: NCI60 cell growth and viability: SNB-75; type: cell-based; conditions: SNB-75, CNS Cancer, two days
# SK-MEL-28 = experiment: NCI60 cell growth and viability: SK-MEL-28; type: cell-based; conditions: SK-MEL-28, Melanoma, two days
# MOLT-4 = experiment: NCI60 cell growth and viability: MOLT-4; type: cell-based; conditions: MOLT-4, Leukemia, two days
# MDA-MB-231 = experiment: NCI60 cell growth and viability: MDA-MB-231; type: cell-based; conditions: MDA-MB-231, Breast Cancer, two days
# [2] = system: heat shock induced chaperone (Hsp25 and Hsp70) expression; experiment: Heat shock induced chaperone expression in MEFs, immunoblotting; type: cell-based, mouse; conditions: heat shock 42° C. 30 mins, 6-hour recovery, FIG. 3
# Procedure: The MEFs were then subjected to heat shock stress at 42° C. for 30 mins to activate HSF1. After heat shock, the MEFs were incubated at 37° C. for a 6-hour recovery. The whole cell lysates were collected at the end of the experiment, and proteins of interest, including Hsp25, Hsp70, HSF1 and GAPDH (as loading control) were assessed by immunoblotting with the corresponding antibody.
# HS 578T = experiment: NCI60 cell growth and viability: HS 578T; type: cell-based; conditions: Breast Cancer, two days
# HT29 = experiment: NCI60 cell growth and viability: HT29; type: cell-based; conditions: HT29, Colon Cancer, two days
# HCC-2998 = experiment: NCI60 cell growth and viability: HCC-2998; type: cell-based; conditions: HCC-2998, Colon Cancer, two days
# [3] = system: C4/2 prostate cancer cells; experiment: Mouse xenograft model of Prostate Cancer; type: in vivo; conditions: nude mice, 25 mg/kg every other day intraperitoneal, vs vehicle
# Procedure: FIGS. 7A and 7B are graphs showing that the compounds of the disclosure inhibit tumor growth in a mouse xenograft model of Prostate Cancer. Nude mice were inoculated on their flank with one million C4/2 prostate cancer cells (n=20 mice). One week after inoculation, tumors were apparent and mice were then treated with either vehicle (n=10 mice) or Compound 0017 (n=10 mice) at 25 mg/kg every other day by intraperitoneal administration. On the indicated days after the start of vehicle or Compound 0017 administration, tumors were measured in situ with a caliper and tumor volume calculated in cubic millimeters (FIG. 7A). Simultaneously, mouse weight was determined (FIG. 7B). Error bars represent standard error of the mean. **=P<0.01 in accordance with one embodiment of the present disclosure.
# IGROV1 = experiment: NCI60 cell growth and viability: IGROV1; type: cell-based; conditions: IGROV1, Ovarian Cancer, two days
# SK-MEL-2 = experiment: NCI60 cell growth and viability: SK-MEL-2; type: cell-based; conditions: SK-MEL-2, Melanoma, two days
# [4] = system: HSF1 regulated transcripts; experiment: HSF1 regulated transcripts in C4-2 cells; type: cell-based, human; conditions: FIG. 4C
# [5] = Homo sapiens, 48 h, read-out: log10 [GI50 (M)] (converted)
# [6] = Homo sapiens, 48 h, read-out: log10 [LC50 (M)] (converted)
smiles,measurement,setting,value
"O=C(Nc1ccc(F)cc1)Nc1ccc(Cl)c([N+](=O)[O-])c1 [Compound 0017, 1-(4-chloro-3-nitrophenyl)-3-(4-fluorophenyl)urea]",log10 [TGI (M)],HOP-62,−4.80 log10 M
same,GI50,HOP-62; [5],3.8e-06 M
same,CC50,HOP-62; [6],5.62e-05 M
same,log10 [TGI (M)],BT-549,−4.97 log10 M
same,GI50,BT-549; [5],2.88e-06 M
same,CC50,BT-549; [6],3.31e-05 M
same,GI50,MDA-MB-435; [5],3.09e-06 M
same,CC50,MDA-MB-435; [6],4.37e-05 M
same,log10 [TGI (M)],MDA-MB-435,−4.94 log10 M
same,log10 [TGI (M)],A498,−5.24 log10 M
same,GI50,A498; [5],1.82e-06 M
same,CC50,A498; [6],2.34e-05 M
same,GI50,NCI-H23; [5],2.63e-06 M
same,CC50,NCI-H23; [6],4.57e-05 M
same,log10 [TGI (M)],NCI-H23,−4.97 log10 M
same,"steady-state protein level of Hsp27, Hsp70, Hsp90 and p23",[1],dose-dependently reduced
same,log10 [TGI (M)],T-47D,−5.01 log10 M
same,GI50,"T-47D; Homo sapiens, T47D, 48 h, read-out: log10 [GI50 (M)] (converted)",2.19e-06 M
same,CC50,"T-47D; Homo sapiens, T47D, 48 h, read-out: log10 [LC50 (M)] (converted)",5.13e-05 M
same,Hsp70 transcript abundance in liver and heart tissue,"HSF1 target gene, Hsp70",inhibits expression of the HSF1 target Hsp70
same,GI50,SNB-75; [5],5.89e-06 M
same,CC50,SNB-75; [6],≥ 0.0001 M
same,log10 [TGI (M)],SNB-75,−4.00 log10 M
same,GI50,SK-MEL-28; [5],3.8e-06 M
same,CC50,SK-MEL-28; [6],3.8e-05 M
same,log10 [TGI (M)],SK-MEL-28,−4.85 log10 M
same,GI50,MOLT-4; [5],3.16e-06 M
same,CC50,MOLT-4; [6],≥ 0.0001 M
same,log10 [TGI (M)],MOLT-4,−4.03 log10 M
same,GI50,MDA-MB-231; [5],2.51e-06 M
same,CC50,MDA-MB-231; [6],3.39e-05 M
same,log10 [TGI (M)],MDA-MB-231,−5.19 log10 M
same,heat shock induced chaperone (Hsp25 and Hsp70) expression,[2],dose-dependently inhibited
same,log10 [TGI (M)],HS 578T,−4.62 log10 M
same,GI50,HS 578T; [5],3.98e-06 M
same,CC50,HS 578T; [6],≥ 0.0001 M
same,log10 [TGI (M)],HT29,−4.91 log10 M
same,GI50,"HT29; Homo sapiens, HT-29, 48 h, read-out: log10 [GI50 (M)] (converted)",3.24e-06 M
same,CC50,"HT29; Homo sapiens, HT-29, 48 h, read-out: log10 [LC50 (M)] (converted)",5.37e-05 M
same,log10 [TGI (M)],HCC-2998,−4.84 log10 M
same,GI50,HCC-2998; [5],3.72e-06 M
same,CC50,HCC-2998; [6],4.27e-05 M
same,mouse weight,[3]; FIG. 7B,without impacting the weight
same,tumor growth (tumor volume),"[3]; C4-2 derived tumors, 21-day, FIG. 7A",inhibits the growth
same,GI50,"IGROV1; Homo sapiens, IGROV-1, 48 h, read-out: log10 [GI50 (M)] (converted)",4.79e-06 M
same,CC50,"IGROV1; Homo sapiens, IGROV-1, 48 h, read-out: log10 [LC50 (M)] (converted)",7.41e-05 M
same,log10 [TGI (M)],IGROV1,−4.73 log10 M
same,GI50,SK-MEL-2; [5],2.34e-06 M
same,CC50,SK-MEL-2; [6],2.51e-05 M
same,log10 [TGI (M)],SK-MEL-2,−5.23 log10 M
same,HSF1 negatively regulated transcripts,[4],de-repressed
same,expression of HSF1 positively regulated transcripts,[4],dose-dependently repressed
